Measured values as given in patent US20210047324A1 (Aptinyx Inc., priority 2018, published 2021).

Assays:
NMDAR2A = molecular target: T1, NMDAR2A (Homo sapiens, UniProt Q12879); assay: NMDAR agonist assay, [3H]MK-801 binding, NMDAR2A expressing HEK cell membranes; format: biochemical; parameters: key to NMDAR2A B: log EC50: 0=−; ≥1×10^−9 M (e.g., −8)=+; <1×10^−9 M (e.g., −10)=++; details: 50 μM glutamate; for EC50: read-out: NMDAR2A B: log EC50 (converted); for Emax: 0.25 h, relative to 1 mM glycine, read-out: NMDAR2A A: % maximal [3H]MK-801 binding relative to 1 mM glycine
T1 construct: expressed in transfected cells; host or cells: HEK cells (membrane extract)
T1 sequence (Q12879 23-1464, species assumed, other chains not shown): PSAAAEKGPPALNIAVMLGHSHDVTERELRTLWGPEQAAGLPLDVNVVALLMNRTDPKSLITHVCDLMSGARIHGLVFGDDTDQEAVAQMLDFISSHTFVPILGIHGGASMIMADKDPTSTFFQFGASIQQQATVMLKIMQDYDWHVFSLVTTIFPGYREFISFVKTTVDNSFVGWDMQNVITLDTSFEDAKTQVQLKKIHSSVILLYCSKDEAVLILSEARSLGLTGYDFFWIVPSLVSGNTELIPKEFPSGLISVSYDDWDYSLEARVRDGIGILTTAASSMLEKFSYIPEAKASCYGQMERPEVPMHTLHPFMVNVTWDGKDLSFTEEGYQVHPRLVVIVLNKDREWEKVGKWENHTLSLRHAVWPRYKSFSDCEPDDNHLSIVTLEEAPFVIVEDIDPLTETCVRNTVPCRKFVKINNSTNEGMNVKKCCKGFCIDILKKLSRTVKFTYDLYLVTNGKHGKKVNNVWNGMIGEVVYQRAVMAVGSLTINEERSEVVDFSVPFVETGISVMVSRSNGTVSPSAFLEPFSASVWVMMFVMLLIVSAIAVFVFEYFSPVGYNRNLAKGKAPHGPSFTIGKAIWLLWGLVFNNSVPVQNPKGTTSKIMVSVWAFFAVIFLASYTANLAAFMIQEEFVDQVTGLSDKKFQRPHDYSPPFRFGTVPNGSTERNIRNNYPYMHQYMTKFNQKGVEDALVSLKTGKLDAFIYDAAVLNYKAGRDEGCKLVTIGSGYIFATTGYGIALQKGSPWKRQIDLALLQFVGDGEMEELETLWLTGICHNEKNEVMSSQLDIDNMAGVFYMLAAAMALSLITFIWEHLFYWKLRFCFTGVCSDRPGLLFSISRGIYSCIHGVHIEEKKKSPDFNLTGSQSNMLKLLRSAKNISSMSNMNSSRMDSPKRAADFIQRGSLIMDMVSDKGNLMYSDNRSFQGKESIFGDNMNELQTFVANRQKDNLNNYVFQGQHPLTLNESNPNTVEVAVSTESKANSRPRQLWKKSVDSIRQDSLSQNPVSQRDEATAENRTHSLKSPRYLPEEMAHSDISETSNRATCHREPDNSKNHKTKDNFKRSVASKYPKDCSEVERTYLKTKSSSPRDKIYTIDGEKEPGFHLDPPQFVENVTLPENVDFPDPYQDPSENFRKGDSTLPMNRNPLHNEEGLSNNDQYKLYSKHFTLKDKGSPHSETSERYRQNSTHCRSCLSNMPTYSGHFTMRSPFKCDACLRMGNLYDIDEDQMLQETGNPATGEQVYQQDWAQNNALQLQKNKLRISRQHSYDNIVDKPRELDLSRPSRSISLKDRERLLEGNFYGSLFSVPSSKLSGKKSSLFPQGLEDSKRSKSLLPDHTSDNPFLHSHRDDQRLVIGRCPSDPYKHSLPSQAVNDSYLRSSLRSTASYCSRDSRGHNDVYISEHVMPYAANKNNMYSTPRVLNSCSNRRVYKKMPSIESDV
Outline: (§1)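 Membranes from HEK cells (300 μg protein) preincubated 15 min with 50 μM glutamate plus compound (1×10^−15–1×10^−7 M) or 1 mM glycine, then with 0.3 μCi [3H]MK-801 for 15 min at 25° C. (nonequilibrium); filter-bound DPM, baseline-subtracted, expressed as % of 1 mM glycine; EC50 and % maximum from three-parameter fit.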

NMDAR2B = molecular target: T2, NMDAR2B (Homo sapiens, UniProt Q13224); assay: NMDAR agonist assay, [3H]MK-801 binding, NMDAR2B expressing HEK cell membranes; format: biochemical; details: 50 μM glutamate; for EC50: read-out: NMDAR2B B: log EC50 (converted); for Emax: relative to 1 mM glycine, read-out: NMDAR2B A: % maximal [3H]MK-801 binding relative to 1 mM glycine
T2 construct: expressed in transfected cells; host or cells: HEK cells (membrane extract)
T2 sequence (Q13224 27-1484, species assumed, other chains not shown): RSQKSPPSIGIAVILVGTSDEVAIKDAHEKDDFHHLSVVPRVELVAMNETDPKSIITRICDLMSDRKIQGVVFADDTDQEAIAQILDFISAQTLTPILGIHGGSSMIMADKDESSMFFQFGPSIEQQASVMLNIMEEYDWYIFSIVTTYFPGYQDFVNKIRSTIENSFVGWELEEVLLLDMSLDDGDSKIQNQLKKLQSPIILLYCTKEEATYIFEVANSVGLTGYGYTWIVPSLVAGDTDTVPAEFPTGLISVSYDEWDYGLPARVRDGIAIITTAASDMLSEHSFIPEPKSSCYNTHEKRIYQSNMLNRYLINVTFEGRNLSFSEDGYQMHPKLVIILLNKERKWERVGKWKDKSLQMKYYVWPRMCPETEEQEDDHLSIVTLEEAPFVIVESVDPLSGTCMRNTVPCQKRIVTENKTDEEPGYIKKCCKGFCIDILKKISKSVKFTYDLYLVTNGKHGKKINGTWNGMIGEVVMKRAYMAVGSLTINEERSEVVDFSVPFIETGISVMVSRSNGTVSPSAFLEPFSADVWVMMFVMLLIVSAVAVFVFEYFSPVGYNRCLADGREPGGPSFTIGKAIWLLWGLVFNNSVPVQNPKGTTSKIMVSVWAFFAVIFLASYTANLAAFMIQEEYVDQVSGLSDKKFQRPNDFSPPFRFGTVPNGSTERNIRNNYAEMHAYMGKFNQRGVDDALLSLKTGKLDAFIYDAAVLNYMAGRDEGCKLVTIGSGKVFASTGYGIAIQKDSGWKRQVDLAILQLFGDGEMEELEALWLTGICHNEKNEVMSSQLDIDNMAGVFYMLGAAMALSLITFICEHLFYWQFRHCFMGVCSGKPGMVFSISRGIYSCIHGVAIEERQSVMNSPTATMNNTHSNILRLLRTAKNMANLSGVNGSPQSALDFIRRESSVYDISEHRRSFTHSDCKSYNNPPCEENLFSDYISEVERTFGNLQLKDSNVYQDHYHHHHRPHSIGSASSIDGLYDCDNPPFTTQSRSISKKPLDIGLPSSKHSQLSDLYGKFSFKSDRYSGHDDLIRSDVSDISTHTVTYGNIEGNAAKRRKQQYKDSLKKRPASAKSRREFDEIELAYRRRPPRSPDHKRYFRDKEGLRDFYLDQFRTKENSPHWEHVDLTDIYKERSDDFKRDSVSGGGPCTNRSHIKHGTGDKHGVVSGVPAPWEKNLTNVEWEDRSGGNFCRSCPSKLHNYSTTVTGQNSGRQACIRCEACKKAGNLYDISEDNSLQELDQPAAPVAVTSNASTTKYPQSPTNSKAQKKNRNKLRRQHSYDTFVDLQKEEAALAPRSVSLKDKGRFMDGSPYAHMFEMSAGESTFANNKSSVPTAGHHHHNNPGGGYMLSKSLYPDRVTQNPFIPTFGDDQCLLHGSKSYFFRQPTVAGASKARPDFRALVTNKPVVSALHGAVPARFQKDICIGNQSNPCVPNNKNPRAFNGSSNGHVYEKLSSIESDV
Outline: as §1

[1] = IV pharmacokinetics in Sprague Dawley rats; format: in vivo; details: Sprague-Dawley, rat, in vivo, iv, 2 mg/kg, normal saline; for Cmax: read-out: Cmax; for Vd: read-out: Vss
Protocol: Sprague Dawley rats were dosed intravenously using a normal saline formulation containing 2 mg/kg of the compounds identified in the below table. The table below summarizes the results of the IV pharmacokinetics.

[2] = Oral pharmacokinetics in Sprague Dawley rats (plasma, brain, CSF); format: in vivo; details: rat, 10 mg/kg; for Tmax / AUC(0-t) / bioavailability / Cmax: Sprague-Dawley, po, plasma; for Tmax / AUC(0-t) / Cmax / CSF Cmax / Brain Cmax: per os; for Tmax: read-out: Tmax; for bioavailability: per os 10 mg/kg; for Cmax: read-out: Cmax
Protocol: In another experiment, Sprague Dawley rats were dosed per os (oral gavage) using a normal saline formulation containing 10 mg/kg of the compounds identified in the table below. Plasma, brain, and CSF samples were analyzed at various time points over a 24 hour period. The table below summarizes the results of the oral pharmacokinetics, where the first three values (Tmax, Cmax and AUClast) are plasma values.

Sprague Dawley rats = assay: Porsolt forced swim test; format: in vivo; details: 1 h post-dose, 0.1 mg/kg
Protocol: A non-clinical in vivo pharmacology study (Porsolt assay) was performed to measure antidepressant-like effects. The study allowed for the evaluation of the effects of each compound on the Porsolt forced swim test as assessed by the rats' response (reduced floating time) during a 5-minute swimming test.
Male 2-3 month old Sprague Dawley rats were used (Harlan, Indianapolis, Ind.). Rats were housed in Lucite cages with aspen wood chip bedding, maintained on a 12:12 light:dark cycle (lights on at 5 AM), and given ad libitum access to Purina lab chow (USA) and tap water throughout the study.
The Porsolt forced swim test adapted for use in rats was performed as described by Burgdorf et al., (The long-lasting antidepressant effects of rapastinel (GLYX-13) are associated with a metaplasticity process in the medial prefrontal cortex and hippocampus. Neuroscience 308:202-211, 2015). Animals were placed in a 46 cm tall×20 cm in diameter clear glass tube filled to 30 cm with tap water (23±1° C.) for 15 min on the first day (habituation) and 5 min on the subsequent test day. Animals were tested 1 h or 24 h post-dosing with the test compounds or vehicle control (0.5% sodium carboxymethyl cellulose in 0.9% sterile saline). A subset of compounds tested at 1 h post-dosing was tested again 1 wk post-dosing. Animals received a 15 min habituation session 1 day before the first 5 min test. Water was changed after every other animal. Animals were videotaped, and floating time as defined as the minimal amount of effort required to keep the animals head above water was scored offline by a blinded experimenter with high inter-rater reliability (Pearson's r >0.9).

[3] = Microsomal stability (Human); format: in vitro ADME; details: after 60 minutes
Protocol: (§2) Microsomal stability of disclosed compounds was investigated. The following table indicates the percent of compound remaining after 60 minutes.

[4] = Microsomal stability (Rat); format: in vitro ADME; details: after 60 minutes
Protocol: as §2

Plasma stability (Human) = format: in vitro ADME; details: after 60 minutes
Protocol: (§3) Plasma stability of disclosed compounds was investigated. The following table indicates the percent of compound remaining after 60 minutes.

Plasma stability (Rat) = format: in vitro ADME; details: after 60 minutes
Protocol: as §3

NMDAR2C = molecular target: T3, NMDAR2C (Homo sapiens, UniProt Q14957); assay: NMDAR agonist assay, [3H]MK-801 binding, NMDAR2C expressing HEK cell membranes; format: biochemical; details: 50 μM glutamate; for EC50: read-out: NMDAR2C B: log EC50 (converted)
T3 construct: expressed in transfected cells; host or cells: HEK cells (membrane extract)
T3 sequence (Q14957 20-1233, species assumed, other chains not shown): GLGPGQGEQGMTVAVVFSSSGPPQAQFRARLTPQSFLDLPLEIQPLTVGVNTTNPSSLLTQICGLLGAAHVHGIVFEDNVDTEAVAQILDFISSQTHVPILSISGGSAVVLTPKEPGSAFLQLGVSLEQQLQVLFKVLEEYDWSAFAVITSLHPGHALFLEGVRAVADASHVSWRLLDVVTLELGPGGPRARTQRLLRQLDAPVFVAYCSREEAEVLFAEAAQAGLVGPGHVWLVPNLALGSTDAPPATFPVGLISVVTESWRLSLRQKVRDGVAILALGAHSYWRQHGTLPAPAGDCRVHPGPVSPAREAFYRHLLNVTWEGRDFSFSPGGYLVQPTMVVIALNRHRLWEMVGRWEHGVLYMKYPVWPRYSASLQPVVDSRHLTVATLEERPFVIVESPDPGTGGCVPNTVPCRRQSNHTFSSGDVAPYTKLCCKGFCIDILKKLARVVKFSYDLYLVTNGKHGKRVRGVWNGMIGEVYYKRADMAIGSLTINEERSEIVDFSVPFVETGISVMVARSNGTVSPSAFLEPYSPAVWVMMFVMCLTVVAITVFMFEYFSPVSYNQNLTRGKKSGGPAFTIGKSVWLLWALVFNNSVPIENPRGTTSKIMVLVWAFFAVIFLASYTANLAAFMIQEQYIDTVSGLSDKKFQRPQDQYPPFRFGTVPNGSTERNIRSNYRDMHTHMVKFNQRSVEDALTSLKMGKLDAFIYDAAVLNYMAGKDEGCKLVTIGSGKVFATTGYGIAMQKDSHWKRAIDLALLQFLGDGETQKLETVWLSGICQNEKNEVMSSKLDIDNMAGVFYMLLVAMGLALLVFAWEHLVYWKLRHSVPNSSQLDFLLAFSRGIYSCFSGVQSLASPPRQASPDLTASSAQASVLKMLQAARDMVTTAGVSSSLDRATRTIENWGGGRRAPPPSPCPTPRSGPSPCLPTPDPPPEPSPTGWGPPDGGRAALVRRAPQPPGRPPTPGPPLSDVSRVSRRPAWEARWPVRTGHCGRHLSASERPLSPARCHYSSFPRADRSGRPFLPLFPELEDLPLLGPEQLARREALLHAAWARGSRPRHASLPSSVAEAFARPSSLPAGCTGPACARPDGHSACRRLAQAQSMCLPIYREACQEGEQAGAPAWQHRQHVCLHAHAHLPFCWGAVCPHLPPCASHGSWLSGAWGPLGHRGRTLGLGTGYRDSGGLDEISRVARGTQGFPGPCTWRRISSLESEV
Protocol: (§4) Assays were conducted as described by Moskal et al., “GLYX-13: a monoclonal antibody-derived peptide that acts as an N-methyl-D-aspartate receptor modulator,” Neuropharmacology, 49, 1077-87, 2005. These studies were designed to determine if the test compounds act to facilitate NMDAR activation in NMDAR2A, NMDAR2B, NMDAR2C or NMDAR2D expressing HEK cell membranes as measured by increases in [^3H]MK-801 binding.
(§5) In the assay, 300 μg of NMDAR expressing HEK cell membrane extract protein was preincubated for 15 minutes at […] in the presence of saturating concentrations of glutamate (50 μM) and varying concentrations of test compound (1×10^−15M-1×10^−7M), or 1 mM glycine. Following the addition of 0.3 μCi of [3H]MK-801 (22.5 Ci/mmol), reactions were again incubated for 15 minutes at 25° C. (nonequilibrium conditions). Bound and free [3H]MK-801 were separated via rapid filtration using a Brandel apparatus.
(§6) In analyzing the data, the DPM (disintegrations per minute) of [3H]MK-801 remaining on the filter were measured for each concentration of test compound or for 1 mM glycine. The DPM values for each concentration of a ligand (N=2) were averaged. The baseline value was determined from the best fit curve of the DPM values modeled using the GraphPad program and the log(agonist) vs. response (three parameters) algorithm was then subtracted from all points in the dataset. The % maximal [^3H]MK-801 binding was then calculated relative to that of 1 mM glycine: all baseline subtracted DPM values were divided by the average value for 1 mM glycine. The EC50 and % maximal activity were then obtained from the best fit curve of the % maximal [3H]MK-801 binding data modelled using the GraphPad program and the log(agonist) vs. response (three parameters) algorithm.
(§7) The tables below summarize the results for the wild type […] NMDAR2A, NMDAR2B, NMDAR2C, and NMDAR2D, and whether the compound is not an agonist (−), is an agonist (+), or is a strong agonist (++), where column A is based on the % maximal [3H]MK-801 binding relative to 1 mM glycine (−=0; <100%=+; and >100%=++); and column B is based on log EC50 values (0=−; ≥1×10^−9 M (e.g., −8)=+; and <1×10^−9 M (e.g., −10)=++).

NMDAR2D [5] = molecular target: T4, NMDAR2D (Homo sapiens, UniProt O15399); assay: NMDAR agonist assay, [3H]MK-801 binding, NMDAR2D expressing HEK cell membranes; format: biochemical; details: 50 μM glutamate; relative to 1 mM glycine
T4 construct: expressed in transfected cells; host or cells: HEK cells (membrane extract)
Protocol: as §4, §5, §6, §7

NMDAR2D [6] = molecular target: T5, NMDAR2D (Homo sapiens, UniProt O15399+Q05586); assay: as above; format: biochemical; details: 50 μM glutamate; read-out: NMDAR2D B: log EC50 (converted)
T5 construct: expressed in transfected cells; host or cells: HEK cells (membrane extract)
Protocol: as §4, §5, §6, §7

| EC50 (NMDAR2A) [nM] | EC50 (NMDAR2B) [nM] | AUC(0-t) [1] [ng·h/mL] | clearance [1] [mL/min/kg] | half-life [1] [h] | Cmax [1] [ng/mL] | Vd [1] [L/kg] | Tmax [2] [h] | AUC(0-t) [2] [ng·h/mL] | bioavailability [2] [%] | Cmax [2] [ng/mL] | CSF Cmax [2] [ng/mL] | Brain Cmax [2] [ng/mL] | Microsomal (Human): percent of compound remaining [3] [%] | Microsomal (Rat): percent of compound remaining [4] [%] | Plasma (Human): percent of compound remaining (Plasma stability (Human)) [%] | Plasma (Rat): percent of compound remaining (Plasma stability (Rat)) [%] | Emax (NMDAR2A) [%] | Structure (SMILES) | % reduction in float time (Sprague Dawley rats) [%] | Significance vs. vehicle (Sprague Dawley rats) | other results |
| --- | --- | --- | --- | --- | --- | --- | --- | --- | --- | --- | --- | --- | --- | --- | --- | --- | --- | --- | --- | --- | --- |
| < 1 | < 1 | 11500 | 2.84 | 4.07 | 1630 | 1.15 | 0.5 | 30500 | 53 | 5820 | 4433.95 | 3556.03 | 99 | 98 | 91 | 97 |  | O=C1NCC=CCC12CC(F)(F)CN2 (single isomer, unassigned) [GL-2, 3,3-difluoro-1,7-diazaspiro[4.6]undec-9-en-6-one] | 6 | No |  |
| ≥ 1 | < 1 | 1840 | 17.8 | 1.41 | 1620 | 1.63 | 1 | 6960 | 75 | 2440 | 199.26 | 514.7 | 100 | 91 | 100 | 100 | < 100 | O=C1NCCCC[C@]12CCCN2 [AU-1, (S)-1,7-diazaspiro[4.6]undecan-6-one] | 86 | Yes | Emax (NMDAR2B): < 100%; EC50 (NMDAR2C): < 1 nM; NMDAR2C A: % maximal [3H]MK-801 binding relative to 1 mM glycine (NMDAR2C): ++ (>100%=++); NMDAR2D A: % maximal [3H]MK-801 binding relative to 1 mM glycine (NMDAR2D [5]): 0% |
|  | < 1 |  |  |  |  |  |  |  |  |  |  |  |  |  |  |  | 0 | O=C1NCCCC[C@@]12CCCN2 [AU-2, (R)-1,7-diazaspiro[4.6]undecan-6-one] |  |  | NMDAR2A B: log EC50 (NMDAR2A): −; Emax (NMDAR2B): < 100%; EC50 (NMDAR2C): < 1 nM; NMDAR2C A: % maximal [3H]MK-801 binding relative to 1 mM glycine (NMDAR2C): + (<100%=+); NMDAR2D A: % maximal [3H]MK-801 binding relative to 1 mM glycine (NMDAR2D [5]): + (<100%=+); EC50 (NMDAR2D [6]): < 1 nM |
